From patent US9492405B2, “Use of fenoterol and fenoterol analogues in the treatment of glioblastomas and astrocytomas” (The United States of America, as represented by the …, priority 2010, dated 2016)
“And” between values parts separate entries of the source, which are not always exact repeats. Identical values can stand only once.

Assays:
rat cardiomyocyte = assay: Rat cardiomyocyte contractility model; assay type: cell-based
1321N1 cells [1] = assay: Inhibition of mitogenesis, [3H]-thymidine incorporation in 1321N1 cells; assay type: cell-based, human
in vivo = conditions: rat; for Individual plasma concentration: individual rats
Method: Dose calculations (mg/kg) were based on the individual body weight measured on the day of treatment. Study duration for pharmacokinetic studies was 6 hours. […] Urine was collected for 0-6 hours and 6 to 24 hours from 3 rats in each treatment group.
In the two-compartment model, the drug distributes into two compartments, the central compartment and the tissue, or peripheral compartment. The central compartment represents the blood, extracellular fluid, and highly perfused tissues. The drug distributes rapidly and uniformly in the central compartment. A second compartment, known as the tissue or peripheral compartment, contains tissues in which the drug equilibrates more slowly. Drug transfer between the two compartments is assumed to take place by first-order processes.
The following abbreviations are utilized in Table 4 below: alpha—macro rate constant associated with the distribution phase; beta—macro rate constant associated with the elimination phase; A, B—zero time intercept associated with the alpha phase and beta phase, respectively; AUC—area under the curve; T1/2 (K10)—half-life associated with the rate constant K10; K10—elimination rate—rate at which the drug leaves the system from the central compartment; K12—rate at which drug enters tissue compartment from the central compartment; K21—rate at which drug enters central compartment from tissue compartment; V1—volume of distribution of the central compartment; V2—volume of distribution of the tissue compartment; Vss—volume of distribution at steady state; and Cl—clearance.

1321N1 cells [2] = assay: Cell cycle distribution by flow cytometry in 1321N1 cells; conditions: for % Phase Distribution G1 / % Phase Distribution G2 / % Phase Distribution S: 20 hours, 1321N1
β2-AR [3] = biological target: T1, β2-AR (Homo sapiens (Human), UniProt P07550); assay: β2-AR mediated cAMP accumulation in HEK-β2-AR cells; assay type: cell-based; conditions: read-out: Stimulation of cAMP Accumulation HEK-β2-AR EC50cAMP
T1 sequence (P07550 whole entry): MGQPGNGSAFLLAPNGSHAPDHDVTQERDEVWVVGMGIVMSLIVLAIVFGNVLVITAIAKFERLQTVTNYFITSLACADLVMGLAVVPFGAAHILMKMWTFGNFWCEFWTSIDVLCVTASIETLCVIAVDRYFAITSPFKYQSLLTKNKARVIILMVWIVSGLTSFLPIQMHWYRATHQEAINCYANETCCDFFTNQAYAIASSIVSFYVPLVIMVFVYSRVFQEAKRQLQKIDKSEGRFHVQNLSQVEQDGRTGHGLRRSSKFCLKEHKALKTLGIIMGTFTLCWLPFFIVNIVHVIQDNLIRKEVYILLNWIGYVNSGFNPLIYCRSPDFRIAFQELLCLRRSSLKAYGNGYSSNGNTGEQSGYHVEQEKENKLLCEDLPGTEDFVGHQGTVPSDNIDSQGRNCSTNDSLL
Method: HEK-β2-AR, 1321N1 or U87MG cells were plated in 96-well plates. When the cells reached confluence, the medium was removed and each well rinsed with 0.1 mL of Krebs-HEPES buffer (130 mM NaCl, 4.8 mM KCl, 1.2 mM KH2PO4, 1.3 mM CaCl2, 1.2 mM MgSO4, 25 mM HEPES, and 10 mM glucose, pH 7.3). The plates were preincubated for 10 minutes at room temperature with buffer alone; then test compound diluted in buffer was added to the wells for quadruplicate determinations. The plates were incubated for an additional 10 minutes with the test compound. After incubation, the medium was removed and 0.1 mL of 0.5 M formic acid was added. After a minimum of 1 hour, the supernatant was removed and lyophilized. cAMP was quantitated using the protein kinase binding assay of Gilman.

[4] = Brain-to-plasma distribution of [3H]-(R,R)-methoxyfenoterol after single IV dose; assay type: in vivo; conditions: rat, IV 5 mg/kg; for Brain level, Mean / Percent of Dose in Brain, Mean / Plasma level, Mean: n=3
Method: An overview of the research study design for evaluating the brain-to-plasma distribution of [^3H]
(specific activity 57 Ci/mmol); vehicle was sterile saline, 0.9% sodium chloride, USP. Dose formulations were prepared on the day of the study. The amount of radioactivity in the dose formulation was determined by liquid scintillation. The study lasted for an hour and radioactivity levels in plasma and brain tissue were evaluated at the conclusion of the study. Approximately 5 mls of whole blood was collected. Blood samples were collected via cardiac puncture, transferred into a tube containing K3EDTA as the anticoagulant and kept on wet ice until processed to plasma. To generate plasma, samples were centrifuged within 15 minutes of collection at 2,500 RPM for 15 minutes at room temperature. Plasma was divided equally into three labeled cryovials and stored on ample dry ice until transferred to a freezer set at ≦−20° C. for storage until analysis. Duplicate aliquots were weighed and then combined with scintillation cocktail. The [^3H] radioactivity was determined on a liquid scintillation counter. Brain samples were snap frozen in liquid nitrogen and stored at ≦−70° C. until analysis. Whole brain tissue was homogenized and the weight of the homogenate was determined. Duplicate aliquots from the homogenate were weighed, solubilized and then combined with scintillation cocktail. The [^3H] radioactivity was determined on a liquid scintillation counter.

β2-AR [5] = biological target: T1, β2-AR; conditions: 1321N1; basal below 0.5 nmol/mg protein
[6] = male, Sprague-Dawley, plasma, iv, 5 mg/kg
[7] = IV 5 mg/kg, two-compartment open model

CCC(Cc1ccc(OC)cc1)NCC(O)c1cc(O)cc(O)c1 (centres unmarked) [4-methoxy-ethylfenoterol]
EC50 (rat cardiomyocyte): > 10000 nM

COc1ccc(C[C@@H](C)N(C[C@H](O)c2cc(O)cc(O)c2)C(C)C)cc1 [4-methoxy-isopropylfenoterol]
EC50 (rat cardiomyocyte): > 10000 nM
IC50 (1321N1 cells [1]; [3H]-thymidine incorporation, 1321N1 cells, mean ± SD, n=4): 946 nM

C[C@H](Cc1ccc(O)cc1)NC[C@H](O)c1cc(O)cc(O)c1 [(R,R)-1, (R,R)-(−)-Fenoterol]
AUC (in vivo; [6]): 495 ng·h/mL
Vd (in vivo; [6]): 1.91 L
clearance (in vivo; [6]): 51.5 mL/min
half-life (in vivo; [6]): 12.2 min
K12 (in vivo; IV 5 mg/kg): 0.0119 min⁻¹
K21 (in vivo; IV 5 mg/kg): 0.0107 min⁻¹
Plasma concentration, Average (in vivo; IV 5 mg/kg, 5 min): 1340 ng/mL
Individual plasma concentration (in vivo; IV 5 mg/kg, 5 min): 1.34 µg/mL
Plasma concentration, Average (in vivo; IV 5 mg/kg, 15 min): 360 ng/mL
Individual plasma concentration (in vivo; IV 5 mg/kg, 15 min): 0.36 µg/mL
Plasma concentration, Average (in vivo; IV 5 mg/kg, 30 min): 340 ng/mL
Individual plasma concentration (in vivo; IV 5 mg/kg, 30 min): 0.17 µg/mL and 0.50 µg/mL
Plasma concentration, Average (in vivo; IV 5 mg/kg, 60 min): 50 ng/mL
Individual plasma concentration (in vivo; IV 5 mg/kg, 60 min): 0.05 µg/mL
Plasma concentration, Average (in vivo; IV 5 mg/kg, 120 min): 20 ng/mL
Individual plasma concentration (in vivo; IV 5 mg/kg, 120 min): 0.03 µg/mL and 0.01 µg/mL
Plasma concentration, Average (in vivo; IV 5 mg/kg, 240 min): 10 ng/mL
Plasma concentration, Average (in vivo; IV 5 mg/kg, 300 min): 5 ng/mL
Individual plasma concentration (in vivo; IV 5 mg/kg, 300 min): 0.005 µg/mL
Plasma concentration, Average (in vivo; IV 5 mg/kg, 360 min): 60 ng/mL
Individual plasma concentration (in vivo; IV 5 mg/kg, 360 min): 0.08 µg/mL and 0.03 µg/mL
V1 (in vivo; IV 5 mg/kg, central compartment): 906.5 mL
K10 (in vivo; IV 5 mg/kg, elimination rate): 0.0568 min⁻¹
V2 (in vivo; IV 5 mg/kg, tissue compartment): 1005.20 mL
Alpha (in vivo; [7]): 0.0710 min⁻¹
Beta (in vivo; [7]): 0.0086 min⁻¹
A (in vivo; IV 5 mg/kg, two-compartment open model, zero time intercept alpha phase): 1.6300 µg/mL
B (in vivo; IV 5 mg/kg, zero time intercept beta phase): 0.0577 µg/mL
% Phase Distribution G1 (1321N1 cells [2]; 0.1 nM): 60.6%
% Phase Distribution G2 (1321N1 cells [2]; 0.1 nM): 1.8%
% Phase Distribution S (1321N1 cells [2]; 0.1 nM): 37.6%
% Phase Distribution G1 (1321N1 cells [2]; 10.0 nM): 76.0%
% Phase Distribution G2 (1321N1 cells [2]; 10.0 nM): 2.1%
% Phase Distribution S (1321N1 cells [2]; 10.0 nM): 21.9%
% Phase Distribution G1 (1321N1 cells [2]; 1000 nM): 74.7%
% Phase Distribution G2 (1321N1 cells [2]; 1000 nM): 0.7%
% Phase Distribution S (1321N1 cells [2]; 1000 nM): 24.6%
dose arresting the cell cycle (1321N1 cells [2]; 1321N1, doses as low as): ≤ 0.1 nM
proportion of cells in G1 phase in treated cells (1321N1 cells [2]; all tested concentrations, controls […]): 60.6-76%
times more potent than (S,S)-fenoterol and forskolin (1321N1 cells [1]; inhibition of [3H]thymidine incorporation, FIG. 7A): 1000 times

CC[C@H](Cc1ccc(O)cc1)NC[C@H](O)c1cc(O)cc(O)c1 [(R,R)-ethylfenoterol, (R,R)-(−)-ethylfenoterol]
EC50 (β2-AR [3]): 2.8 nM

CC[C@@H](Cc1ccc(O)cc1)NC[C@H](O)c1cc(O)cc(O)c1 [(R,S)-ethylfenoterol, (R,S)-(−)-ethylfenoterol]
EC50 (β2-AR [3]): 16.6 nM

Cc1ccc(OCC(O)C(C)NC(C)C)c2c1CCC2 (centres unmarked) [ICI 118-551, reference compound]
pA2 (1321N1 cells [1]; competitive inhibition of (R,R)-fenoterol effect on [3H]-thymidine incorporation, 1321N1): 8.9

COc1ccc(C[C@@H](C)NC[C@H](O)c2cc(O)cc(O)c2)cc1.Cl [[^3H]-(R,R)-methoxyfenoterol]
decrease of plasma levels from 5 to 60 minutes [4]: 62%
Brain level, Individual ([4]; 5 min): 1.00 μg-equiv/g and 0.80 μg-equiv/g and 0.95 μg-equiv/g
Percent of Dose in Brain, Individual ([4]; 5 min): 0.15% (2×) and 0.12%
Plasma level, Individual ([4]; 5 min): 3.30 μg-equiv/ml and 3.08 μg-equiv/ml and 3.37 μg-equiv/ml
Brain level, Mean ([4]; 5 min): 0.92±0.10 μg-equiv/g and 0.92 μg-equiv/g
Percent of Dose in Brain, Mean ([4]; 5 min): 0.14%
Plasma level, Mean ([4]; 5 min): 3.25±0.15 μg-equiv/ml and 3.25 μg-equiv/ml
Brain level, Individual ([4]; 15 min): 0.36 μg-equiv/g and 1.06 μg-equiv/g and 0.99 μg-equiv/g
Percent of Dose in Brain, Individual ([4]; 15 min): 0.06% and 0.16% and 0.15%
Plasma level, Individual ([4]; 15 min): 0.89 μg-equiv/ml and 2.29 μg-equiv/ml and 2.19 μg-equiv/ml
Brain level, Mean ([4]; 15 min): 0.80 μg-equiv/g
Percent of Dose in Brain, Mean ([4]; 15 min): 0.12%
Plasma level, Mean ([4]; 15 min): 1.79 μg-equiv/ml
Brain level, Individual ([4]; 30 min): 0.22 μg-equiv/g and 1.00 μg-equiv/g and 0.95 μg-equiv/g
Percent of Dose in Brain, Individual ([4]; 30 min): 0.03% and 0.15% (2×)
Plasma level, Individual ([4]; 30 min): 0.63 μg-equiv/ml and 1.97 μg-equiv/ml and 2.00 μg-equiv/ml
Brain level, Mean ([4]; 30 min): 0.72 μg-equiv/g
Percent of Dose in Brain, Mean ([4]; 30 min): 0.11%
Plasma level, Mean ([4]; 30 min): 1.53 μg-equiv/ml
Brain level, Individual ([4]; 60 min): 0.44 μg-equiv/g and 0.53 μg-equiv/g and 1.12 μg-equiv/g
Percent of Dose in Brain, Individual ([4]; 60 min): 0.06% and 0.09% and 0.17%
Plasma level, Individual ([4]; 60 min): 0.97 μg-equiv/ml and 1.01 μg-equiv/ml and 1.73 μg-equiv/ml
Brain level, Mean ([4]; 60 min): 0.70±0.37 μg-equiv/g and 0.70 μg-equiv/g
Percent of Dose in Brain, Mean ([4]; 60 min): 0.11%
Plasma level, Mean ([4]; 60 min): 1.24±0.43 μg-equiv/ml and 1.24 μg-equiv/ml
percent dose found in the brain, any given animal ([4]; no more than): no more than 0.17%

C=C[C@@]1(C)CC(=O)[C@]2(O)[C@@]3(C)[C@@H](O)CCC(C)(C)[C@@H]3[C@H](O)[C@H](OC(C)=O)[C@@]2(C)O1 [forskolin, reference compound]
cell cycle arrest (1321N1 cells [2]; 1321N1 cells): induced cell cycle arrest in G1 phase
intracellular concentration of cAMP after treatment (β2-AR [5]): ~4 nmol/mg protein
